Literature values, collected in patent US7618650B2, “Combination of a hypnotic agent and substituted bis aryl and heteroaryl compound and therapeutic application thereof” (Aventis Pharmaceuticals Inc, priority 2005, dated 2009).

Settings: average dosage between 5 and 10 mg in a conventional formulation

Structure (SMILES): Cc1ccc(-c2nc3ccc(C)cn3c2CC(=O)N(C)C)cc1 [Zolpidem, zolpidem]
- half life, average value: about 2.4 hours
